According to ChEMBL document CHEMBL1201862, “PubChem BioAssay data set” (2004):
Activity calls are given as the source filed them.

Key:
[1] = NIH/3T3 fibroblast cytotoxicity, dose response, cytotoxicity control for T. cruzi growth inhibitor project, cell-based, cherry-pick samples, set 2 (AID 651817); assay type: functional; settings: NIH3T3
BJ [2] = assay: cytotoxicity toward BJ-TERT fibroblasts, dose response, cell-based, RAS-independent, luminescence (AID 1933); assay type: functional; settings: Homo sapiens
BJ [3] = assay: cytotoxicity toward BJ-TERT-LT-ST fibroblasts, dose response, cell-based, RAS-independent, luminescence (AID 1935); assay type: functional; settings: Homo sapiens;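 note: BJ fibroblasts immortalized with TERT plus LT and ST oncogenes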
BJ [4] = assay: cells; assay type: functional, cell-based; settings: Homo sapiens
[5] = target: Delta-type opioid receptor (Homo sapiens, UniProt P41143); assay: Counterscreen for agonists of heterodimerization of the mu 1 (OPRM1) and delta 1 (OPRD1) opioid receptors: Luminescence-based cell-based high throughput dose response assay to identify agonists of OPRD1 homodimerization. [Related pubchem assays (depositor defined):AID504326, AID504355, AID504692, AID504904, AID504905]; assay type: functional
[6] = cytotoxicity toward DRD oncogenic fibroblasts, dose response, cell-based, non-viral oncogenic, luminescence (AID 1934); assay type: functional; settings: Homo sapiens
[7] = target: 5-hydroxytryptamine receptor 5A (Homo sapiens, UniProt P47898); assay: Counterscreen for agonists of OPRM1-OPRD1 heterodimerization: luminescence-based cell-based high throughput dose response assay to identify agonists of 5-hydroxytryptamine (serotonin) 5A receptor (HTR5A). [Related pubchem assays (depositor defined):AID504326, AID504355, AID504692, AID504904, AID504905]; assay type: functional
Mu-type opioid receptor = Mu-type opioid receptor (Homo sapiens, UniProt P35372); assay: Counterscreen for agonists of heterodimerization of the mu 1 (OPRM1) and delta 1 (OPRD1) opioid receptors: Luminescence-based cell-based high throughput dose response assay to identify agonists of OPRM1 homodimerization.; assay type: functional;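 note: U2OS cells expressing OPRM1 and beta-arrestin as split beta-galactosidase partners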
HEK293 = assay: inhibitors of LMP1-driven NF-kB reporter, dose response, cell-based, HEK293, luciferase, cherry-pick (AID 588343); assay type: functional; settings: Homo sapiens
[8] = target: T1, Latent membrane protein 1 (Human herpesvirus 4 (strain B95-8), UniProt P03230); assay: TES1-eGFP NF-kB reporter inhibition versus Tet-On dsRED, dose response, selectivity assay for LMP1 NF-kB inhibitor project, imaging, HEK293T, dual-color eGFP/dsRED, cherry-picks (AID 588398); assay type: functional, cell-based
T1 sequence (P03230 whole entry): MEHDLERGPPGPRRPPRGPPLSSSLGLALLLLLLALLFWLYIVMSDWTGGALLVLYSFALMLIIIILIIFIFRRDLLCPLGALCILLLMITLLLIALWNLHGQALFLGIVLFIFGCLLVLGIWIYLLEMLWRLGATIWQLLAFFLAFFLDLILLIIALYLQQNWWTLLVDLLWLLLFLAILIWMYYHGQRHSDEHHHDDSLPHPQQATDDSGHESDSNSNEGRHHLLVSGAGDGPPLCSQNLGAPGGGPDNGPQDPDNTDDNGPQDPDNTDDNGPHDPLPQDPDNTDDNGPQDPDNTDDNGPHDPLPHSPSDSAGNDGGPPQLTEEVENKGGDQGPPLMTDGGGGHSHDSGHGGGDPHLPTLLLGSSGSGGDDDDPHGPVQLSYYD

Vero = assay: cells; assay type: functional; settings: Chlorocebus sabaeus
[9] = nonselective inhibitors of cellular cAMP signaling, dose response, counter-screen for MC4R biased antagonist project, cell-based, TR-FRET cAMP detection (AID 602305); assay type: functional;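 note: U2OS cells stimulated with forskolin near its EC80 as the cAMP inducer; potency is for inhibition of forskolin-stimulated cAMP signaling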
Melanocortin receptor 4 = Melanocortin receptor 4 (Homo sapiens, UniProt P32245); assay: MC4R antagonist potency on cAMP, dose response, cell-based, TR-FRET, biased antagonists (AID 602298); assay type: functional;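 note: antagonist potency against agonist-stimulated cAMP production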
Sequence of Melanocortin receptor 4 (P32245 whole entry): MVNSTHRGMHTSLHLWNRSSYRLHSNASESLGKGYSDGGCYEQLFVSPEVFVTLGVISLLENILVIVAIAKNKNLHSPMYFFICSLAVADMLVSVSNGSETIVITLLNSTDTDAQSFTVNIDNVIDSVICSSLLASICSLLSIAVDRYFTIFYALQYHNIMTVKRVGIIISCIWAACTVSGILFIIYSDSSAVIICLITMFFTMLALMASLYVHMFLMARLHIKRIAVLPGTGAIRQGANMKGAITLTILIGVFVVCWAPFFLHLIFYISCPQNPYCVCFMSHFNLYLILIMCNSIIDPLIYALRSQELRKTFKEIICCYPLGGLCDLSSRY

Sequence of 5-hydroxytryptamine receptor 5A (P47898 whole entry): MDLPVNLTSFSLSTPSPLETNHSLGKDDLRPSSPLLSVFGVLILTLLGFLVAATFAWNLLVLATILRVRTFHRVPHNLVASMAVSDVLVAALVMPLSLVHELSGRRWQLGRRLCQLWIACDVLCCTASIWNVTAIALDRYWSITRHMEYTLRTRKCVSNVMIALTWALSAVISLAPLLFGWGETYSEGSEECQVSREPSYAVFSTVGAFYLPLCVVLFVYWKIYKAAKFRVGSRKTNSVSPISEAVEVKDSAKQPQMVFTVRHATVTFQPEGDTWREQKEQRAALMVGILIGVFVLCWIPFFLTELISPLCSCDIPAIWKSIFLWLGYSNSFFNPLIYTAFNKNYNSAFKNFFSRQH
Sequence of Mu-type opioid receptor (P35372 whole entry): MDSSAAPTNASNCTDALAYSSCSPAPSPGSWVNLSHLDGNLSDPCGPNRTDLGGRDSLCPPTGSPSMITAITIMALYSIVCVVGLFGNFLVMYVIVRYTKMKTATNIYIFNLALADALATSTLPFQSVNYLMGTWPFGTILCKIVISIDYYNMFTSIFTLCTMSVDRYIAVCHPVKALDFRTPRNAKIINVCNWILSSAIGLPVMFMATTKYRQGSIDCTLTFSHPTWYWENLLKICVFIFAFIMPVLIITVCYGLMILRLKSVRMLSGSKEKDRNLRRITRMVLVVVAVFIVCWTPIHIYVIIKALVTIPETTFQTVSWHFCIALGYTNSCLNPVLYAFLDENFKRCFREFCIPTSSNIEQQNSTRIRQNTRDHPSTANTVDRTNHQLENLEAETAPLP
Sequence of Delta-type opioid receptor (P41143 whole entry): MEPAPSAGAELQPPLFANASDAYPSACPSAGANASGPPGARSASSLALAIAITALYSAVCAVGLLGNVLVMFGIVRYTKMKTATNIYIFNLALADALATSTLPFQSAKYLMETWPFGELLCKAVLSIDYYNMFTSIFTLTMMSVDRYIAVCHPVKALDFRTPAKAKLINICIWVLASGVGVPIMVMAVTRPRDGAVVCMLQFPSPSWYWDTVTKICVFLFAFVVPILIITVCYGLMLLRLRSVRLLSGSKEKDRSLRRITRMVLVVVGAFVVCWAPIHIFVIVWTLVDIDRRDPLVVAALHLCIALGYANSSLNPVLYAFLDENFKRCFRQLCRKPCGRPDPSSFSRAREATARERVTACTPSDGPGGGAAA

In the case of `C[C@H]1CN([C@@H](C)CO)C(=O)Cc2cc(NS(=O)(=O)c3ccc(F)cc3)ccc2O[C@H]1CN(C)Cc1ccc(Cl)c(Cl)c1`, the AC50 [1] is reported as 39 µM (inactive).
In the case of `CCc1ccc2nc(N(CCCN(C)C)C(=O)c3ccc(S(=O)(=O)N(C)C4CCCCC4)cc3)sc2c1`, the EC50 (BJ [2]) is reported as 6.21 µM (inconclusive), the EC50 (BJ [3]) is reported as 7.58 µM (active) and the EC50 (BJ [4]) is reported as 13.4 µM (active). The EC50 [5] was > 92.5 µM (inactive), the EC50 [6] was 7.91 µM (active) and the EC50 [7] was > 92.5 µM (inactive). For the same molecule, the EC50 (Mu-type opioid receptor) was > 92.5 µM (inactive).
For `CSCCC(/C(O)=C(\C#N)c1nc2ccccc2[nH]1)N1C(=O)c2ccccc2C1=O` (centres undefined), the EC50 [5] was > 92.4 µM (inactive), the EC50 [7] was > 92.4 µM (inactive) and the EC50 (Mu-type opioid receptor) was > 92.4 µM (inactive).
For `O=C1NC(c2cccc(OCc3ccccc3)c2)Nc2ccccc21` (centres undefined), the AC50 (HEK293) was 84 µM (active) and the AC50 [8] was 2.82 µM (active).
With `CCOc1ccc(-c2cc(C(=O)N/N=C/c3ccc(O)cc3)c3ccccc3n2)cc1` the AC50 (HEK293) was 5.12 µM (active) and the CC50 (Vero) was 14.9 µM (active).
In the case of `COc1cc([N+](=O)[O-])ccc1NC(=S)NC(=O)CC(C)(C)C`, the IC50 [9] is reported as > 64.6 µM (inactive) and the IC50 (Melanocortin receptor 4) is reported as > 64.6 µM (inactive).
In the case of `CCOC(=O)c1c(NC(=O)C2c3ccccc3Oc3ccccc32)sc(C(N)=O)c1C`, the IC50 [9] is reported as 32.5 µM (inactive) and the IC50 (Melanocortin receptor 4) is reported as > 21.5 µM (inactive).
